US7307077B2, “Heterocyclic compound and antitumor agent containing the same as effective ingredient” (Zenyaku Kogyo Kabushiki Kaisha, priority 2001, dated 2007)
Like-named read-outs stand apart in the source and are kept apart here.

Tests used:
MCF-7 cells = experiment: Test 1: growth inhibition of MCF-7 human breast cancer cells; type: cell-based; settings: read-out: GI50 (50% growth inhibition concentration)
Experimental: Used in the test were MCF-7 cells which were established from human breast cancer and were cultured routinely under the conditions of 37° C. and 5% CO2, in MEM medium supplemented with 10% fetal calf serum, 25 mM of HEPES and 0.1 mg/ml of kanamycin. The MCF-7 cells in a logarithmic growth phase were treated with trypsin/EDTA to prepare single cell suspension adjusted to 4.0×10^4 cells/ml in MEM medium (supplemented with 10% fetal calf serum, 25 mM of HEPES and 0.1 mg/ml of kanamycin). Test compounds were dissolved in DMSO and diluted with RPMI 1640 medium (supplemented with 10% fetal calf serum, 25 mM of HEPES and 0.1 mg/ml of kanamycin) to a concentration of 2.0×10^−4-2.0×10^−9 M.
The cell suspension was filled in a 96-wells microplate at a rate of 0.1 ml per well and was cultured for 24 hours so as to make the cells adhered to the microplate. Then, it was added with 0.1 ml of the sample solution and cultured at 37° C. for 72 hours in 5% CO2.
50% Growth inhibition concentrations (GI50 μM) were calculated from growth inhibitions at various sample concentrations.

[1] = Homo sapiens, MCF7, 72 hours culture with sample

Structure (SMILES) | GI50 (MCF-7 cells; [1]) [nM] | melting point | GI50 (MCF-7 cells; 72 hours culture with sample) [nM]
COC(=O)Nc1nc2ccccc2n1-c1nc(N2CCOCC2)nc(N2CCOCC2)n1 [compound 29, 2-(2-methoxycarbonylaminobenzimidazol-1-yl)-4,6-dimorpholino-1,3,5-triazine] | 250 | 206 to 209 °C | –
Nc1cccc2c1nc(C(F)F)n2-c1nc(N2CCOCC2)nc(N2CCOCC2)n1 [compound 34, 2-(4-amino-2-difluoromethylbenzimidazol-1-yl)-4,6-dimorpholino-1,3,5-triazine] | 80 | 214 to 216 °C (dec.) | –
C[C@@H]1OCCN(c2cc(N3CCOCC3)nc(-n3c(CO)nc4ccccc43)n2)[C@@H]1C (relative stereo) [compound 10, 4-(cis-2,3-dimethylmorpholino)-2-(2-hydroxymethylbenzimidazol-1-yl)-6-morpholinopyrimidine] | 130 | 125 to 128 °C | –
CC(=O)Nc1nc2ccccc2n1-c1nc(N2CCOCC2)cc(N2CCO[C@@H](C)[C@@H]2C)n1 (relative stereo) [compound 23, 2-(2-acetylaminobenzimidazol-1-yl)-4-(trans-2,3-dimethylmorpholino)-6-morpholinopyrimidine] | 190 | 150 to 153 °C | –
C[C@@H]1OCCN(c2cc(N3CCOCC3)nc(-n3c(NC=O)nc4ccccc43)n2)[C@H]1C (relative stereo) [compound 27, 4-(trans-2,3-dimethylmorpholino)-2-(2-formylaminobenzimidazol-1-yl)-6-morpholinopyrimidine] | 160 | 143 to 146 °C | –
C[C@@H]1OCCN(c2cc(N3CCOCC3)nc(-n3c(C(F)F)nc4ccc(N)cc43)n2)[C@@H]1C (relative stereo) [compound 36, 2-(6-amino-2-difluoromethylbenzimidazol-1-yl)-4-(2,3-cis-dimethylmorpholino)-6-morpholinopyrimidine] | 290 | 155 to 158 °C (dec.) | –
FC(F)c1nc2ccccc2n1-c1nc(N2CCOCC2)cc(N2CCOCC2)n1 [compound 2, 2-(2-difluoromethylbenzimidazol-1-yl)-4,6-dimorpholinopyrimidine] | 210 | 201 to 202 °C | –
CC1(C)OCCN1c1nc(N2CCOCC2)nc(-n2c(C(F)F)nc3cc(O)ccc32)n1 [compound 39, 2-(2-difluoromethyl-5-hydroxybenzimidazol-1-yl)-4-(2,2-dimethyloxazolidin-3-yl)-6-morpholino-1,3,5-triazine] | 60 | 239 to 243 °C (dec.) | –
[O-][S+]1CCN(c2nc(N3CCOCC3)nc(-n3c(C(F)F)nc4ccccc43)n2)CC1 [compound 21, 2-(2-difluoromethylbenzimidazol-1-yl)-4-morpholino-6-(tetrahydro-1,4-thiazin-1-oxo-4-yl)-1,3,5-triazine] | – | – | 340
C[C@@H]1CN(c2nc(N3CCOCC3)nc(-n3c(NC=O)nc4ccccc43)n2)C[C@H](C)O1 [compound 28, 2-(cis-2,6-dimethylmorpholino)-4-(2-formylaminobenzimidazol-1-yl)-6-morpholino-1,3,5-triazine] | – | 242 to 244 °C | –
Cc1nc2ccccc2n1-c1nc(N2CCOCC2)nc(N2CCOCC2)n1 [compound B, 2-(2-methylbenzimidazol-1-yl)-4,6-dimorpholino-1,3,5-triazine, reference compound] | 3700 | – | –
C[C@@H]1OCCN(c2cc(N3CCOCC3)nc(-n3c(N)nc4ccccc43)n2)[C@@H]1C (relative stereo) [Example 2, 2-(2-aminobenzimidazol-1-yl)-4-(cis-2,3-dimethylmorpholino)-6-morpholinopyrimidine] | – | 129 to 133 °C | –
CC1(C)CN(c2cc(N3CCOCC3)nc(-n3c(C(F)F)nc4ccccc43)n2)CCO1 [compound 5, 2-(2-difluoromethylbenzimidazol-1-yl)-4-(2,2-dimethylmorpholino)-6-morpholinopyrimidine] | 220 | 149 to 152 °C | –
C[C@@H]1OCCN(c2nc(N3CCOCC3)nc(-n3c(C(F)F)nc4cc(O)ccc43)n2)[C@@H]1C (relative stereo) [compound 37, 2-(2-difluoromethyl-5-hydroxybenzimidazol-1-yl)-4-(2,3-cis-dimethylmorpholino)-6-morpholino-1,3,5-triazine] | 90 | 170 to 175 °C (dec.) | –
C[C@@H]1CO[C@@H](C)CN1c1nc(N2CCOCC2)nc(-n2c(C(F)F)nc3ccccc32)n1 (relative stereo) [compound 18, 2-(2-difluoromethylbenzimidazol-1-yl)-4-(trans-2,5-dimethylmorpholino)-6-morpholino-1,3,5-triazine] | 180 | – | –
c1cn(-c2nc(N3CCOCC3)nc(N3CCOCC3)n2)cn1 [compound C, 2-(imidazol-1-yl)-4,6-dimorpholino-1,3,5-triazine, reference compound] | 20000 | – | –

Structure (SMILES) | GI50 (MCF-7 cells; [1]) [nM] | melting point | GI50 (MCF-7 cells; 72 hours culture with sample) [nM]
FC(F)c1nc2ccccc2n1-c1nc(N2CCOCC2)cc(N2CCSCC2)n1 [compound 3, 2-(2-difluoromethylbenzimidazol-1-yl)-4-morpholino-6-thiomorpholinopyrimidine] | 380 | 173 to 175 °C | –
Oc1ccc2c(c1)nc(C(F)F)n2-c1nc(N2CCOCC2)cc(N2CCOCC2)n1 [compound 40, 2-(2-difluoromethyl-5-hydroxybenzimidazol-1-yl)-4,6-dimorpholinopyrimidine] | 210 | 223 to 226 °C (dec.) | –
C[C@@H]1OCCN(c2cc(N3CCOCC3)nc(-n3cnc4ccccc43)n2)[C@H]1C (relative stereo) [compound A, 2-(benzimidazol-1-yl)-4-(trans-2,3-dimethylmorpholino)-6-morpholinopyrimidine] | 2200 | – | –
CC1(C)CN(c2nc(N3CCOCC3)nc(-n3c(C(F)F)nc4ccccc43)n2)CCO1 [compound 15, 2-(2-difluoromethylbenzimidazol-1-yl)-4-(2,2-dimethylmorpholino)-6-morpholino-1,3,5-triazine] | 130 | 176 to 178 °C | –
CCC(=O)Nc1nc2ccccc2n1-c1nc(N2CCOCC2)nc(N2CCO[C@@H](C)[C@@H]2C)n1 (relative stereo) [compound 25, 2-(2-propionylaminobenzimidazol-1-yl)-4-(trans-2,3-dimethylmorpholino)-6-morpholino-1,3,5-triazine] | 190 | – | –
CC1CN(c2nc(N3CCOCC3)nc(-n3c(C(F)F)nc4ccccc43)n2)CCO1 (stereo not drawn) [compound 17, 2-(2-difluoromethylbenzimidazol-1-yl)-4-(2-methylmorpholino)-6-morpholino-1,3,5-triazine] | 120 | 188 to 191 °C | –
C[C@@H]1OCCN(c2cc(N3CCOCC3)nc(-n3c(N)nc4ccccc43)n2)[C@@H]1C.Cl (relative stereo) [compound 30, 2-(2-aminobenzimidazol-1-yl)-4-(cis-2,3-dimethylmorpholino)-6-morpholinopyrimidine hydrochloride] | 250 | 151 to 155 °C | –
FC(F)c1nc2ccccc2n1-c1nc(N2CCOCC2)nc(N2CCSCC2)n1 [compound 16, 2-(2-difluoromethylbenzimidazol-1-yl)-4-morpholino-6-thiomorpholino-1,3,5-triazine] | 350 | – | –
CC1(C)CN(c2nc(N3CCOCC3)nc(-n3c(C(F)F)nc4c(O)cccc43)n2)CCO1 [compound 38, 2-(2-difluoromethyl-4-hydroxybenzimidazol-1-yl)-4-(2,2-dimethylmorpholino)-6-morpholino-1,3,5-triazine] | 30 | 228 to 231 °C (dec.) | –
C[C@@H]1OCCN(c2nc(N3CCOCC3)nc(-n3c(C(F)F)nc4ccccc43)n2)[C@@H]1C (relative stereo) [compound 13, 2-(2-difluoromethylbenzimidazol-1-yl)-4-(cis-2,3-dimethylmorpholino)-6-morpholino-1,3,5-triazine] | – | 207 to 210 °C | –
CC1CN(c2cc(N3CCOCC3)nc(-n3c(C(F)F)nc4ccccc43)n2)CCO1 (stereo not drawn) [compound 6, 2-(2-difluoromethylbenzimidazol-1-yl)-4-(2-methylmorpholino)-6-morpholinopyrimidine] | 290 | – | –
C[C@@H]1OCCN(c2cc(N3CCOCC3)nc(-n3c(C(F)F)nc4ccccc43)n2)[C@H]1C (relative stereo) [compound 4, 2-(2-difluoromethylbenzimidazol-1-yl)-4-(trans-2,3-dimethylmorpholino)-6-morpholinopyrimidine] | 180 | – | –
C[C@@H]1COC(C)(C)CN1c1nc(N2CCOCC2)nc(-n2c(C(F)F)nc3ccccc32)n1 [compound 20, 2-(2-difluoromethylbenzimidazol-1-yl)-4-morpholino-6-[2,2,5(R)-trimethylmorpholino]-1,3,5-triazine] | 220 | 169 to 171 °C | –
CN(C)c1nc(N(C)C)nc(N(C)C)n1 [compound D, hexamethylmelamine, reference compound] | > 100000 | – | –
C[C@@H]1OCCN(c2nc(N3CCOCC3)nc(-n3c(NC=O)nc4ccccc43)n2)[C@H]1C (relative stereo) [compound 26, 2-(trans-2,3-dimethylmorpholino)-4-(2-formylaminobenzimidazol-1-yl)-6-morpholino-1,3,5-triazine] | < 40 | – | –
